Source: US20240408059A1, “METHOD OF TREATING ADDICTION” (Anebulo Pharmaceuticals, Inc., priority 2021, published 2024)

Key:
[1] = Compound 2 in treatment of cannabis use disorder (CUD) / cannabis withdrawal; format: in vivo, human
Description: Compound 2 is used in a combination treatment for cannabis use disorder (CUD). Combinations include use of antidepressants (specifically sedating antidepressants, such as mirtazapine or trazodone), antipsychotics, CB1 agonists such as THC and allosteric CB1 modulators such as Cannabidiol. These agents improve the safety profile of a CB1 inhibitor as described herein, such as compound 2, and lessen the burden of the withdrawal symptoms.
The benefits of a combination therapy comprising compound 2 and a sedating antidepressant, such as Mirtazapine or Trazodone, are outline in Table 1 below.
Daily doses such as between about 5 mg and about 100 mg of Compound 2 are efficacious in CUD. Doses of 1-50 mg or 20 to 30 mg may also be used. Compound 2 is also evaluated in combination with daily doses of Mirtazapine at about 15 mg to about 45 mg, or daily doses of Trazodone at about 50 mg to about 400 mg. Mirtazapine is given at bedtime. In another embodiment, Compound 2 and Mirtazapine are formulated and administered as a single oral dosage form, such as a tablet or a capsule.

CYP3A4 [2] = target: T1, CYP3A4 (Homo sapiens, UniProt P08684); test: Drug-drug interactions, CYP3A4 inhibition; format: in vitro ADME
Protocol: (§1) In steady state, the patient has 24 h coverage despite convenient once daily dosing. […] Both antidepressants and drug withdrawal can decrease the seizure threshold.

Seizure liability = settings: in vivo
Protocol: as §1

[3] = Half-life of Compound 2 (once daily dosing, steady state); format: in vivo; settings: accumulation enables slow onset; 24 h coverage in steady state with once daily dosing
Protocol: as §1

CYP3A4 [4] = target: T1, CYP3A4; settings: CYP3A4 inhibitors increase the concentrations of both drugs; cited from earlier work
[5] = patients taking the drug long term; vs 5%; cited from earlier work

T1 sequence (P08684 whole entry): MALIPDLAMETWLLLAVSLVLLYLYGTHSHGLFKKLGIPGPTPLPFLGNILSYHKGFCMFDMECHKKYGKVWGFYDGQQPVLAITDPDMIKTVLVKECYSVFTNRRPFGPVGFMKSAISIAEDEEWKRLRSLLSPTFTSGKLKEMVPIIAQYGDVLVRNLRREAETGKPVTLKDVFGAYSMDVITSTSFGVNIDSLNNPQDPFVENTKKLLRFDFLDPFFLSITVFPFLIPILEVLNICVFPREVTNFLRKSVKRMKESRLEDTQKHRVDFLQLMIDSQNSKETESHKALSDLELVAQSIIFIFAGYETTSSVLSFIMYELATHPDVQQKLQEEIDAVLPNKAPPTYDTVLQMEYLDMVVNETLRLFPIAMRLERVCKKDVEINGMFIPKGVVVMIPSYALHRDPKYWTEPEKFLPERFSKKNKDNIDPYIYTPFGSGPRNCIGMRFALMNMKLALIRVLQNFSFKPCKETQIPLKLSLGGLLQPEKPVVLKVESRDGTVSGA

CC(C)(C)NC(=O)N1CC(O[C@H](c2ccc(Cl)cc2)c2ccccc2C(F)(F)F)C1 [Compound 2, (R)—N-(tert-butyl)-3-((4-chlorophenyl)(2-(trifluoromethyl)phenyl)methoxy)azetidine-1-carboxamide]
Effect of Compound 2 on anxiety (withdrawal symptoms) ([1]; cannabis withdrawal): Increases anxiety | Effect of Compound 2 on high probability of THC use/relapse: anti-addictive properties ([1]; cannabis withdrawal): has anti-addictive | Effect of Compound 2 on high probability of THC use/relapse: getting high ([1]; cannabis withdrawal): Blocks getting high + | Effect of Compound 2 on mood ([1]; cannabis withdrawal): Depressed mood | Effect of Compound 2 on sleep problems (withdrawal symptoms) ([1]; cannabis withdrawal): Increases sleep | Effect of Compound 2 on weight ([1]; cannabis withdrawal): Weight loss | efficacy in CUD ([1]; daily doses between about 5 mg and about 100 mg): efficacious | drug-drug interactions, particularly CYP3A4 inhibition (CYP3A4 [2]): Lack of drug-drug interactions, particularly CYP3A4 inhibition | seizure liability (Seizure liability): Lack of seizure liability | half-life [3]: Long half-life

CN1CCN2c3ncccc3Cc3ccccc3C2C1 (stereo not shown) [Mirtazapine]
metabolizing enzyme (CYP3A4 [4]): metabolized by CYP3A4

Cc1c(C(=O)NN2CCCCC2)nn(-c2ccc(Cl)cc2Cl)c1-c1ccc(Cl)cc1 [Rimonabant]
incidence of depression [5]: 9%

O=c1n(CCCN2CCN(c3cccc(Cl)c3)CC2)nc2ccccn12 [Trazodone]
metabolizing enzyme (CYP3A4 [4]): metabolized by CYP3A4
